Reference: PubChem BioAssay (NCI)
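Each compound was tested at five concentrations against cells in 96-well plates for 48 hours. GI50 is the concentration that inhibits growth by half. TGI: total growth inhibition.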

Columns and labels:
Test in all cases: growth of human tumour cells (NCI), 48 h; in the data active = GI50 below about 0.43 µM; inactive = the rest
[1] = system: 786-0 renal
[2] = system: A498 renal
[3] = system: A549 NSCLC
[4] = system: ACHN renal
[5] = system: BT-549 breast
[6] = system: CAKI-1 renal
[7] = system: CCRF-CEM leukemia
[8] = system: COLO 205 colon
[9] = system: DU-145 prostate
[10] = system: EKVX NSCLC
[11] = system: HCC-2998 colon
[12] = system: HCT-116 colon
[13] = system: HCT-15 colon
[14] = system: HL-60(TB) leukemia
[15] = system: HOP-62 NSCLC
[16] = system: HOP-92 NSCLC
[17] = system: HS 578T breast
[18] = system: HT29 colon
[19] = system: IGROV1 ovarian
[20] = system: K-562 leukemia
[21] = system: KM12 colon
[22] = system: LOX IMVI melanoma
[23] = system: M14 melanoma
[24] = system: MALME-3M melanoma
[25] = system: MCF7 breast
[26] = system: MDA-MB-231 breast
[27] = system: MDA-MB-435
[28] = system: MOLT-4 leukemia
[29] = system: NCI-H226 lung
[30] = system: NCI-H23 lung
[31] = system: NCI-H460 lung
[32] = system: NCI-H522 lung
[33] = system: NCI/ADR-RES ovarian
[34] = system: OVCAR-3 ovarian
[35] = system: OVCAR-4 ovarian
[36] = system: OVCAR-5 ovarian
[37] = system: OVCAR-8 ovarian
[38] = system: PC-3 prostate
[39] = system: RPMI-8226 leukemia
[40] = system: RXF 393 renal
[41] = system: SF-268 CNS
[42] = system: SF-295 CNS
[43] = system: SF-539 CNS
[44] = system: SK-MEL-2 melanoma
[45] = system: SK-MEL-28 melanoma
[46] = system: SK-MEL-5 melanoma
[47] = system: SK-OV-3 ovarian
[48] = system: SN12C renal
[49] = system: SNB-19 CNS
[50] = system: SNB-75 CNS
[51] = system: SR leukemia
[52] = system: SW-620 colon
[53] = system: T-47D breast
[54] = system: TK-10 renal
[55] = system: U251 CNS
[56] = system: UACC-257 melanoma
[57] = system: UACC-62 melanoma
[58] = system: UO-31 renal

NC(=O)c1sc(-n2cnc3cc(C(F)(F)F)ccc32)cc1OCc1ccccc1Br
> 25 µM: TGI [1] | TGI [2] | TGI [3] | TGI [4] | TGI [5] | TGI [6] | TGI [7] | TGI [8] | TGI [9] | TGI [10] | TGI [11] | TGI [12] | TGI [13] | TGI [14] | TGI [16] | TGI [17] | TGI [18] | TGI [19] | TGI [20] | TGI [21] | TGI [22] | TGI [23] | TGI [24] | TGI [25] | TGI [26] | TGI [27] | TGI [28] | TGI [29] | TGI [30] | TGI [31] | TGI [32] | TGI [33] | TGI [34] | TGI [35] | TGI [36] | TGI [37] | TGI [38] | TGI [39] | TGI [40] | TGI [41] | TGI [42] | TGI [43] | TGI [44] | TGI [45] | TGI [46] | TGI [47] | TGI [48] | TGI [49] | TGI [51] | TGI [52] | TGI [53] | TGI [54] | TGI [55] | TGI [56] | TGI [57] | TGI [58]
inactive: GI50 [1] 18.4 µM | GI50 [2] > 25 µM | GI50 [3] > 25 µM | GI50 [4] > 22.4 µM | GI50 [5] > 25 µM | GI50 [6] > 25 µM | GI50 [7] > 19.2 µM | GI50 [8] > 25 µM | GI50 [9] > 25 µM | GI50 [10] > 25 µM | GI50 [11] > 25 µM | GI50 [12] > 16 µM | GI50 [13] > 25 µM | GI50 [14] > 25 µM | GI50 [15] 6.49 µM | GI50 [16] 8.02 µM | GI50 [17] 12.4 µM | GI50 [18] > 19.5 µM | GI50 [19] > 25 µM | GI50 [20] 24.7 µM | GI50 [21] > 19.9 µM | GI50 [22] > 17.5 µM | GI50 [23] > 25 µM | GI50 [24] > 16.2 µM | GI50 [25] > 13.4 µM | GI50 [26] > 17.6 µM | GI50 [27] > 16.5 µM | GI50 [28] > 25 µM | GI50 [29] > 17.2 µM | GI50 [30] > 25 µM | GI50 [31] > 19.6 µM | GI50 [32] > 20 µM | GI50 [33] > 17.4 µM | GI50 [34] > 16.7 µM | GI50 [35] 9.02 µM | GI50 [36] > 25 µM | GI50 [37] 21.4 µM | GI50 [38] > 20.4 µM | GI50 [39] > 23.6 µM | GI50 [40] > 12.9 µM | GI50 [41] > 17.5 µM | GI50 [42] > 25 µM | GI50 [43] 24.9 µM | GI50 [44] > 25 µM | GI50 [45] > 23.4 µM | GI50 [46] > 16.5 µM | GI50 [47] 9.07 µM | GI50 [48] 24.6 µM | GI50 [49] > 19.1 µM | GI50 [50] 8.72 µM | GI50 [51] > 21.2 µM | GI50 [52] > 17.9 µM | GI50 [53] > 21 µM | GI50 [54] > 25 µM | GI50 [55] > 15.8 µM | GI50 [56] > 25 µM | GI50 [57] > 21.6 µM | GI50 [58] > 25 µM
> 16.9 µM: TGI [15]
> 18.8 µM: TGI [50]
